In test [1] the target is Delta-type opioid receptor (Homo sapiens) (UniProt P41143). Put plainly: Displacement of [3H]-naltrindole from human delta opioid receptor expressed in human HEK293 cells after 2 hrs by scintillation counting. It is filed as cell-based.
Test [2] is filed under the species Homo sapiens. Put plainly: Selectivity ratio of IC50 for human mu opioid receptor to IC50 for human NOP receptor.
A further test has as its target Mu-type opioid receptor (Homo sapiens, UniProt P35372). Briefly: Displacement of [3H]-naltrindole from human mu opioid receptor expressed in CHO cells after 2 hrs by scintillation counting. Format: cell-based.
The target in test [3] is T1, Nociceptin receptor (Homo sapiens, UniProt P41146). Briefly: Antagonist activity at human NOP receptor expressed in human HEK293 cells assessed as inhibition of GTPgammaS binding in presence of 300 nM GDP relative to control. It is filed as functional, cell-based. (GTPγS resists hydrolysis and so accumulates on activated G proteins.)
Test [4] addresses Kappa-type opioid receptor (Homo sapiens, UniProt P41145). Briefly: Displacement of [3H]-diprenorphine from human kappa opioid receptor expressed in human HEK293 cells after 2 hrs by scintillation counting. Background: Loss of bound radioactivity is the signal in a displacement assay; it reports binding, not function.
The species named for test [5] is Homo sapiens. Put plainly: Selectivity ratio of IC50 for human kappa opioid receptor to IC50 for human NOP receptor.
Test [6] has as its target T1, Nociceptin receptor. Briefly: Displacement of [125I]Tyr14-nociceptin from human NOP receptor expressed in human HEK293 cells after 90 mins by scintillation counting.

As a reminder, the IC50 is the point on the concentration scale where inhibition reaches its midpoint.

The source made the active and inactive calls. No cut-off for these calls is given here.

Chain of Kappa-type opioid receptor (P41145 whole entry): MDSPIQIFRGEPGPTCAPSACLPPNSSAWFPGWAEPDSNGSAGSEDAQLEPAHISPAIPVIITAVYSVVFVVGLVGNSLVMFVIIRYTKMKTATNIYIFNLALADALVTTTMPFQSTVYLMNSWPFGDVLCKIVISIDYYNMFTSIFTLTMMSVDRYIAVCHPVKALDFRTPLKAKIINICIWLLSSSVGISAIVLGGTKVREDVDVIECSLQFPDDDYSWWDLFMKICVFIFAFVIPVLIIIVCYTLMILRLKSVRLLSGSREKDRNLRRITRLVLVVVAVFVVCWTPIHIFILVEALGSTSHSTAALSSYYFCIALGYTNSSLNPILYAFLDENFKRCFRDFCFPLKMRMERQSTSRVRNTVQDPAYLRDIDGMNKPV
Chain of Delta-type opioid receptor (Homo sapiens) (P41143 whole entry): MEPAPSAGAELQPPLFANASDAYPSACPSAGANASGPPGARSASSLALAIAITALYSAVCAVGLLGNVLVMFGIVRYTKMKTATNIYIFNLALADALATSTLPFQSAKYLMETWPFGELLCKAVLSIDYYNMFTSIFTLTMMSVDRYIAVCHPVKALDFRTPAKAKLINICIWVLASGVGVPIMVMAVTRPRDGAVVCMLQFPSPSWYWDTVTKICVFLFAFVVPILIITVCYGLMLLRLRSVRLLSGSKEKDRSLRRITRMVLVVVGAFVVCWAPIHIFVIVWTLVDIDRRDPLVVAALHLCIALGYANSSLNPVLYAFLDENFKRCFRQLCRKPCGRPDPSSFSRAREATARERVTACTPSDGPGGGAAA
Chain of Mu-type opioid receptor (P35372 whole entry): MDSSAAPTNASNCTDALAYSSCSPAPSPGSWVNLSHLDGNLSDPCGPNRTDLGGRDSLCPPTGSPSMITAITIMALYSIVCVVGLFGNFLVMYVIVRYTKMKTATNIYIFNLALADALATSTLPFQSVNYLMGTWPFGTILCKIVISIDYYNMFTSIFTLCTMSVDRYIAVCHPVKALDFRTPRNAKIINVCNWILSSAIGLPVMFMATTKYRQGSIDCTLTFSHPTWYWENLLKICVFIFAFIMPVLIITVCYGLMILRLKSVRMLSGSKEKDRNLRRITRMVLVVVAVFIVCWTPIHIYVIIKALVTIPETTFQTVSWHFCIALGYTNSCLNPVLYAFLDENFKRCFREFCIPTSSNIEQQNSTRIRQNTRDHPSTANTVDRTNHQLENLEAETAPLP
T1 sequence (P41146 whole entry): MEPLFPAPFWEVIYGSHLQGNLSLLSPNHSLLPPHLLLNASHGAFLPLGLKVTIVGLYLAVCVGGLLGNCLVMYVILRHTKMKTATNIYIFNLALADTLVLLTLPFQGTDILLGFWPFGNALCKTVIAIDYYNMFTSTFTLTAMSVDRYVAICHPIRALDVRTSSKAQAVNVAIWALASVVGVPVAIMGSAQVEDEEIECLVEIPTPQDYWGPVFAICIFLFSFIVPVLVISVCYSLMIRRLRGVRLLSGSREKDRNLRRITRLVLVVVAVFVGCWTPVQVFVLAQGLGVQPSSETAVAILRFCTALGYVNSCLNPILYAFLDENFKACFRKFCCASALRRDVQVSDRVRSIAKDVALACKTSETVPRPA

Turning to `Cc1cc(N)c2cc(NC(=O)c3ccccc3COc3ccc(CNCCCCCCCCCCNCc4ccc(OCc5ccccc5C(=O)Nc5ccc6nc(C)cc(N)c6c5)cc4)cc3)ccc2n1`, the result in test [1] was inactive. For the same compound, the Ratio IC50 in the test filed under Homo sapiens [2] turned out to be 45; in the test listed under Homo sapiens [5] it was 31. The IC50 on Mu-type opioid receptor amounted to 1320 nM; in test [4], 900 nM; at Nociceptin receptor [6], 32.7 nM. At Nociceptin receptor [3], the result was Active.
On to `CCCCCCCCCCNCc1ccc(OCc2ccccc2C(=O)Nc2ccc3nc(C)cc(N)c3c2)cc1`, for which, in test [1], the result was inactive. Also, the Ratio IC50 is 9.6 in the test listed under Homo sapiens [2] and 15 in the test listed under Homo sapiens [5]. For the same compound, the figures for the IC50 (at Mu-type opioid receptor; in test [4]; at Nociceptin receptor [6]) were 2750 nM, 4350 nM and 405 nM, respectively. The result at Nociceptin receptor [3] was Active.
As for `CCCNCc1ccc(OCc2ccccc2C(=O)Nc2ccc3nc(C)cc(N)c3c2)cc1`, the outcome in test [1] was inactive. Besides, the Ratio IC50 in the test filed under Homo sapiens [2] was found to be 49; in the test listed under Homo sapiens [5] it was 45. Further, the half-inhibitory concentration (IC50) was determined as 3350 nM on Mu-type opioid receptor, 3080 nM in test [4] and 83 nM at Nociceptin receptor [6]. Besides, the outcome at Nociceptin receptor [3] was Active.
Turning to `Cc1cc(N)c2cc(NC(=O)c3ccccc3COc3ccc(CNCCCCCCCCCN)cc3)ccc2n1`, the result in test [1] was inactive. The results for the Ratio IC50 in the test listed under Homo sapiens [2] and in the test listed under Homo sapiens [5] were 46 and 40, respectively. Besides, the values for the IC50 (on Mu-type opioid receptor; in test [4]; on Nociceptin receptor [6]) were 7070 nM, 6180 nM and 212 nM, respectively. In addition, the outcome at Nociceptin receptor [3] was Active.
For `CCCCCCCCCNCc1ccc(OCc2ccccc2C(=O)Nc2ccc3nc(C)cc(N)c3c2)cc1`, the result in test [1] was inactive. The Ratio IC50 stood at 11 in the test listed under Homo sapiens [2] and 13 in the test filed under Homo sapiens [5]. Moreover, the IC50 on Mu-type opioid receptor is 2170 nM; in test [4] it was 2560 nM; on Nociceptin receptor [6], 305 nM. For the same compound, on Nociceptin receptor [3], the outcome was Active.
Regarding `Cc1cc(N)c2cc(NC(=O)c3ccccc3COc3ccc(CNCCCCCCCCNCc4ccc(OCc5ccccc5C(=O)Nc5ccc6nc(C)cc(N)c6c5)cc4)cc3)ccc2n1`, the result in test [1] was inactive. Also, the Ratio IC50 in the test listed under Homo sapiens [2] came to 56; in the test listed under Homo sapiens [5] it was 37. For the same compound, the concentration for half-maximal inhibition (IC50) at Mu-type opioid receptor was found to be 1900 nM; in test [4], 1270 nM; on Nociceptin receptor [6], 31.6 nM. Further, on Nociceptin receptor [3], the result was Active.
As to `Cc1cc(N)c2cc(NC(=O)c3ccccc3COc3ccc(CNCCCCCCCNCc4ccc(OCc5ccccc5C(=O)Nc5ccc6nc(C)cc(N)c6c5)cc4)cc3)ccc2n1`, the result in test [1] was inactive. Also, the Ratio IC50 in the test listed under Homo sapiens [2] worked out at 34; in the test filed under Homo sapiens [5], 33. Besides, the half-inhibitory concentration (IC50) on Mu-type opioid receptor is 1040 nM; in test [4], 1020 nM; on Nociceptin receptor [6], 30.1 nM. The result at Nociceptin receptor [3] was Active.
Regarding `CCCCNCc1ccc(OCc2ccccc2C(=O)Nc2ccc3nc(C)cc(N)c3c2)cc1`, the outcome in test [1] was inactive. The values for the Ratio IC50 in the test listed under Homo sapiens [2] and in the test filed under Homo sapiens [5] were 8.6 and 10, respectively. Also, the figures for the half-inhibitory concentration (IC50) (at Mu-type opioid receptor; in test [4]; at Nociceptin receptor [6]) were 5110 nM, 5920 nM and 1120 nM, respectively. Also, the result at Nociceptin receptor [3] was Active.
On to `Cc1cc(N)c2cc(NC(=O)c3ccccc3COc3ccc(CNCCCCCCCCCNCc4ccc(OCc5ccccc5C(=O)Nc5ccc6nc(C)cc(N)c6c5)cc4)cc3)ccc2n1`, for which, in test [1], the result was inactive. For the same compound, the Ratio IC50 is 40 in the test listed under Homo sapiens [2] and 36 in the test filed under Homo sapiens [5]. In addition, the IC50 at Mu-type opioid receptor worked out at 1160 nM; in test [4], 1050 nM; on Nociceptin receptor [6], 28.1 nM. For the same compound, at Nociceptin receptor [3], the outcome was Active.
On to `Cc1cc(N)c2cc(NC(=O)c3ccccc3COc3ccc(CNCCCCCNCc4ccc(OCc5ccccc5C(=O)Nc5ccc6nc(C)cc(N)c6c5)cc4)cc3)ccc2n1`, for which the result in test [1] was inactive. For the same compound, the Ratio IC50 in the test listed under Homo sapiens [2] came to 46; in the test listed under Homo sapiens [5] it was 28. The IC50 amounted to 2510 nM on Mu-type opioid receptor, 1500 nM in test [4] and 76.2 nM on Nociceptin receptor [6]. In addition, the result on Nociceptin receptor [3] was Active.
For the compound `Cc1cc(N)c2cc(NC(=O)c3ccccc3COc3ccc(CNCCCCCN)cc3)ccc2n1`, the outcome in test [1] was inactive. Also, the Ratio IC50 in the test filed under Homo sapiens [2] was 41; in the test listed under Homo sapiens [5], 18. The half-inhibitory concentration (IC50) stood at 4880 nM at Mu-type opioid receptor, 2150 nM in test [4] and 207 nM at Nociceptin receptor [6]. Moreover, the result at Nociceptin receptor [3] was Active.
Regarding `Cc1cc(N)c2cc(NC(=O)c3ccccc3COc3ccc(CNCCCCNCc4ccc(OCc5ccccc5C(=O)Nc5ccc6nc(C)cc(N)c6c5)cc4)cc3)ccc2n1`, in test [1], the outcome was inactive. Further, the Ratio IC50 in the test listed under Homo sapiens [2] was determined as 39; in the test listed under Homo sapiens [5], 27. Besides, the IC50 stood at 1590 nM on Mu-type opioid receptor, 1090 nM in test [4] and 56.6 nM on Nociceptin receptor [6]. In addition, on Nociceptin receptor [3], the outcome was Active.

For the origin of these results see ChEMBL document CHEMBL1759965, “Synthesis and pharmacological evaluation of bivalent antagonists of the nociceptin opioid receptor” (Eur J Med Chem, 2011).
